In paper PMC10283505, “CVM-1118 (foslinanib), a 2-phenyl-4-quinolone derivative, promotes apoptosis and inhibits vasculogenic mimicry via targeting TRAP1” (Pathology and Oncology Research, 2023):

How the values were obtained:
TGFβig-h3 = target: T1, TGFβig-h3 (Homo sapiens, UniProt Q15582); assay: Surface plasmon resonance (Biacore); format: binding; details: TGFβig-h3, SPR
T1 sequence (Q15582 24-683): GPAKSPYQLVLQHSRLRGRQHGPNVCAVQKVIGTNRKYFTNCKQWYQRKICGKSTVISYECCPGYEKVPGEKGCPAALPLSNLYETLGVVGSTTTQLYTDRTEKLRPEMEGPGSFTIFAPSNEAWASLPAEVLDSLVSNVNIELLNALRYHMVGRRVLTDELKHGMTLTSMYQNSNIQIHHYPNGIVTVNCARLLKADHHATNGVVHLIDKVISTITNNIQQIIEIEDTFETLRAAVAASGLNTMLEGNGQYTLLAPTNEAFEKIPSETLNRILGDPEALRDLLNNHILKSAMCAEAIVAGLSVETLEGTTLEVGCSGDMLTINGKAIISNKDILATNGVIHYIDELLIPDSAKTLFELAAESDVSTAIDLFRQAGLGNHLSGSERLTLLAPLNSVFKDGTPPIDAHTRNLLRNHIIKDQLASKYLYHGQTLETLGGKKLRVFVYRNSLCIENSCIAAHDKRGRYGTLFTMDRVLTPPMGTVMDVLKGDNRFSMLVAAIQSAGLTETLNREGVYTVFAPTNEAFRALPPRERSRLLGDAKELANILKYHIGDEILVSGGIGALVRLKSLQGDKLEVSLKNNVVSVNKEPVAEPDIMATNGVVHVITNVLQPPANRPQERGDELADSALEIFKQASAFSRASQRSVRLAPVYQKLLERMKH

MCF7 = assay: NCI 60 cytotoxicity screening; format: cell-based; details: Homo sapiens; MCF7, Breast
U251 = assay: NCI 60 cytotoxicity screening; format: cell-based; details: Homo sapiens, U-251; U251, CNS
SK-OV-3 = assay: NCI 60 cytotoxicity screening; format: cell-based; details: Homo sapiens; SK-OV-3, Ovarian
OVCAR-4 = assay: NCI 60 cytotoxicity screening; format: cell-based; details: Homo sapiens; OVCAR-4, Ovarian
SR = assay: NCI 60 cytotoxicity screening; format: cell-based; details: Homo sapiens, Leukemia
IGROV1 = assay: NCI 60 cytotoxicity screening; format: cell-based; details: Homo sapiens, IGROV-1; IGROV1, Ovarian
CCRF-CEM = assay: NCI 60 cytotoxicity screening; format: cell-based; details: Homo sapiens, Leukemia
HT29 = assay: NCI 60 cytotoxicity screening; format: cell-based; details: Homo sapiens, HT-29; HT29, Colon
UACC-257 = assay: NCI 60 cytotoxicity screening; format: cell-based; details: Homo sapiens; UACC-257, Melanoma
NCI-H460 = assay: NCI 60 cytotoxicity screening; format: cell-based; details: Homo sapiens; NCI-H460, NSCLC
HL-60(TB) = assay: NCI 60 cytotoxicity screening; format: cell-based; details: Homo sapiens, Leukemia
HCC-2998 = assay: NCI 60 cytotoxicity screening; format: cell-based; details: Homo sapiens; HCC-2998, Colon
HCT-116 = assay: Orthotopic HCT-116 mouse xenograft study, tumor volume; format: in vivo, BALB/c nude mice; details: for tumor volume: day 43, vehicle 1,139 ± 580
Protocol: This animal study was contracted to CrownBio International R&D Center (Beijing, China) and was conducted under the approval of the Animal Ethics Committee at CrownBio in compliance with institutional and national guidelines. Seven-to eight-week-old female BALB/c nude mice were obtained from HFK Bio-Technology Co., Ltd. (Beijing, China). HCT-116 cells (2 × 10^6) were suspended in 20 μL PBS and then injected into the cecal wall. Treatment began on day 14 after cell inoculation when tumor reached ∼100 mm^3 measured in a satellite group of three mice. Treatment groups include vehicle control [PEG400:pH 10 carbonate buffer (40:60)], CVM-1118 at 20, 50, and 100 mg/kg given orally daily for 28 days, and CVM-1118 at 20 mg/kg given as intravenous injection once every 2 days for 7 times. Tumor volumes were measured at the end of in-life study on day 43. At the end of in vivo study, tumor tissues from selected groups were excised, collected, and subjected to standard immunohistochemical procedures to visualize the effect of CVM-1118 on VM network formation. Briefly, rabbit anti-human CD31 antibody (Abcam) was used as the primary Ab for the staining and the number of channels with CD31+/red blood cell (RBC)+, or CD31−/RBC+ were counted based on five light fields (×200) on the whole section of each sample in each group under microscope. Analysis of difference in tumor volume for drug-treated group against vehicle control group was conducted using one-way ANOVA followed by least significant difference (LSD) test (equal variance tested and confirmed by Brown-Forsythe test). Statistical analysis for VM formation was evaluated using Mann-Whitney test. All data were analyzed using GraphPad Prism 9.5.

[1] = test system: human melanoma (C8161) cells; assay: In vitro VM assay (3D Matrigel tubular network); format: cell-based; details: 24 h
Protocol: Aggressive human melanoma (C8161) cells were seeded at 1.0 × 10^5 onto 3D polymerized LDEV-free Matrigel (75 μL; 14 mg/ml; Corning Cat. No. 356232) for VM analysis in 12-well dishes containing no drug or various concentrations of CVM-1118. Matrigel-coated dishes were photographed for tubular network formation after 24 h.

[2] = Cell viability at VM-inhibiting concentration; format: cell-based; details: human, human melanoma cells; 10 nM; read-out: percentage of viable cells

COc1ccc2[nH]c(-c3cccc(F)c3)cc(=O)c2c1O [CVM-1125]
Association (ka) (TGFβig-h3): No interaction | Dissociation (kd) (TGFβig-h3): No interaction | KD (kd/ka) (TGFβig-h3): No interaction | GI50 (MCF7): 29.9 nM | GI50 (U251): 42.9 nM | GI50 (SK-OV-3): 35.6 nM | GI50 (OVCAR-4): 43.6 nM | GI50 (SR): 12 nM | GI50 (IGROV1): 27 nM | GI50 (CCRF-CEM): 34.8 nM | GI50 (HT29): 29 nM | GI50 (UACC-257): 33.7 nM | GI50 (NCI-H460): 32.8 nM | GI50 (HL-60(TB)): 22.2 nM | GI50 (HCC-2998): 32.1 nM

COc1ccc2[nH]c(-c3cccc(F)c3)cc(=O)c2c1OP(=O)(O)O [CVM-1118]
tumor volume (HCT-116; 20 mg/kg i.v. once every 2 days for 7 times): 670 ± 447 mm^3 | animals found dead prior to the termination of the study (HCT-116; 20 mg/kg i.v. treatment group): two mice | tumor volume (HCT-116; 20 mg/kg orally daily for 28 days): 1,591 ± 747 mm^3 | animals found dead prior to the termination of the study (HCT-116; 50 mg/kg oral treatment group): One mouse | tumor volume (HCT-116; 50 mg/kg orally daily for 28 days): 722 ± 595 mm^3 | tumor volume (HCT-116; 100 mg/kg orally daily for 28 days): 475 ± 415 mm^3 | VM (in vitro) tubular network formation ([1]; C8161, 5 nM): disrupted | VM (in vitro) tubular network formation ([1]; C8161, 10 nM): significantly inhibited | VM (in vitro) tubular network formation ([1]; C8161, 50 nM): significantly inhibited | viability at 0.01 µM [2]: > 90%
